Assay results from ChEMBL document CHEMBL5137021, “Organotropic dendrons with high potency as HIV-1, HIV-2 and EV-A71 cell entry inhibitors” (Eur J Med Chem, 2022).

Legend:
[1] = Cytotoxicity against human MT4 cells assessed as cell viability measured after 5 days by MTS assay; type: toxicity, cell-based; conditions: time 5 day
[2] = system: Human immunodeficiency virus 1; experiment: Antiviral activity against HIV1 NL4-3 infected in human MT4 cells assessed as protection against virus induced cytopatheic effect measured after 5 days by MTS assay; type: functional, organism-based; conditions: Human immunodeficiency virus 1, NL4-3, MT4, 120 h
[3] = system: Human immunodeficiency virus 2; experiment: Antiviral activity against HIV2 ROD infected in human MT4 cells assessed as protection against virus induced cytopatheic effect measured after 5 days by MTS assay; type: functional, organism-based; conditions: Human immunodeficiency virus 2, ROD, MT4, 120 h
[4] = Cytotoxicity against human RD cells assessed as cell viability measured after 5 days by MTS assay; type: toxicity, cell-based; conditions: time 5 day
Enterovirus A71 [5] = experiment: Antiviral activity against EV-A71 infected in RD cells assessed as protection against virus induced cytopatheic effect measured after 5 days by MTS assay; type: functional, organism-based; conditions: Enterovirus A, 120 h
[6] = Selectivity index, ratio of CC50 for human MT4 cells to EC50 for antiviral activity against HIV-1 NL4.3; type: toxicity; conditions: read-out: Ratio CC50/EC50
[7] = Selectivity index, ratio of CC50 for human RD cells to EC50 for antiviral activity against EV-A71; type: toxicity; conditions: read-out: Ratio CC50/EC50
Enterovirus A71 [8] = experiment: Antiviral activity against EV-A71 genotype A BrCr infected in RD cells assessed as protection against virus induced cytopatheic effect measured after 5 days by MTS assay; type: functional, organism-based; conditions: 120 h
Enterovirus A71 [9] = experiment: Antiviral activity against Enterovirus A71 BrCr harboring VP1_S184T mutant infected in RD cells assessed as protection against virus induced cytopatheic effect measured after 5 days by MTS assay; type: functional, organism-based
Enterovirus A71 [10] = experiment: Antiviral activity against Enterovirus A71 BrCr harboring VP1_P246S mutant infected in RD cells assessed as protection against virus induced cytopatheic effect measured after 5 days by MTS assay; type: functional, organism-based
Enterovirus A71 [11] = experiment: Antiviral activity against Enterovirus A71 BrCr harboring VP1_S184T_P246S mutant infected in RD cells assessed as protection against virus induced cytopatheic effect measured after 5 days by MTS assay; type: functional, organism-based
Enterovirus A71 [12] = experiment: Antiviral activity against Enterovirus A71 BrCr infected in RD cells assessed as protection against virus induced cytopatheic effect measured after 5 days by MTS assay; type: functional, organism-based; conditions: Enterovirus A, 120 h
Coxsackievirus B3 = experiment: Antiviral activity against Coxsackievirus B3 Nancy strain infected in Vero cells assessed as protection against virus induced cytopatheic effect measured after 5 days by MTS assay; type: functional, organism-based; conditions: Enterovirus B, 120 h
enterovirus D68 = experiment: Antiviral activity against Enterovirus D68 CU70 infected in HeLa cells assessed as protection against virus induced cytopatheic effect measured after 5 days by MTS assay; type: functional, organism-based; conditions: Enterovirus D, 120 h
rhinovirus A2 = experiment: Antiviral activity against Rhinovirus 2 infected in HeLa cells assessed as protection against virus induced cytopatheic effect measured after 5 days by MTS assay; type: functional, organism-based, Enterovirus; conditions: Rhinovirus A, 2, HeLa, 120 h
rhinovirus B14 = experiment: Antiviral activity against Rhinovirus 14 infected in HeLa cells assessed as protection against virus induced cytopatheic effect measured after 5 days by MTS assay; type: functional, organism-based, Enterovirus; conditions: Rhinovirus B, 14, HeLa, 120 h
Enterovirus A71 [13] = experiment: Antiviral activity against EV-A71 genotype C4 TW/1956/05 infected in RD cells assessed as protection against virus induced cytopatheic effect measured after 5 days by MTS assay; type: functional, organism-based; conditions: Enterovirus A, genotype C4 TW/1956/05, RD, 120 h
Enterovirus A71 [14] = experiment: Antiviral activity against EV-A71 genotype B2 11316 infected in RD cells assessed as protection against virus induced cytopatheic effect measured after 5 days by MTS assay; type: functional, organism-based; conditions: Enterovirus A, genotype B2 11316, RD, 120 h
Enterovirus A71 [15] = experiment: Antiviral activity against EV-A71 genotype B5 TW/70902/08 infected in RD cells assessed as protection against virus induced cytopatheic effect measured after 5 days by MTS assay; type: functional, organism-based; conditions: Enterovirus A, genotype B5 TW/70902/08, RD, 120 h
Enterovirus A71 [16] = experiment: Antiviral activity against EV-A71 genotype C2 H08300 461#812 infected in RD cells assessed as protection against virus induced cytopatheic effect measured after 5 days by MTS assay; type: functional, organism-based; conditions: Enterovirus A, genotype C2 H08300 461#812, RD, 120 h
[17] = Ex vivo biodistribution in ip dosed C57BL/6 mouse intestine measured after 2 hrs by fluorescence analysis; type: ADME, organism-based
[18] = Ex vivo biodistribution in iv dosed C57BL/6 mouse intestine measured after 2 hrs by fluorescence analysis; type: ADME, organism-based
[19] = Ex vivo biodistribution in ip dosed C57BL/6 mouse lung measured after 24 hrs by fluorescence analysis; type: ADME, organism-based
[20] = Ex vivo biodistribution in ip dosed C57BL/6 mouse lung measured after 72 hrs by fluorescence analysis; type: ADME, organism-based
[21] = Ex vivo biodistribution in ip dosed C57BL/6 mouse intestine measured after 24 hrs by fluorescence analysis; type: ADME, organism-based
[22] = Ex vivo biodistribution in ip dosed C57BL/6 mouse intestine measured after 72 hrs by fluorescence analysis; type: ADME, organism-based

Compound	CC50 at 120 h [1]	EC50 [2]	EC50 [3]	CC50 at 120 h [4]	EC50 (Enterovirus A71 [5])	selectivity ratio [6]	selectivity ratio [7]	EC50 (Enterovirus A71 [8])	EC50 (Enterovirus A71 [9])	EC50 (Enterovirus A71 [10])	EC50 (Enterovirus A71 [11])	further results
O=C(CCC(CCC(=O)NC(Cc1c(-c2cc(C(=O)O)cc(C(=O)O)c2)[nH]c2ccccc12)C(=O)O)(CCC(=O)NC(Cc1c(-c2cc(C(=O)O)cc(C(=O)O)c2)[nH]c2ccccc12)C(=O)O)[N+](=O)[O-])NC(Cc1c(-c2cc(C(=O)O)cc(C(=O)O)c2)[nH]c2ccccc12)C(=O)O (configuration not stated)	> 100000 nM	270 nM	630 nM	> 75000 nM	350 nM	> 370	> 103	353 nM	2300 nM	1900 nM	2200 nM	–
O=C(CCC(CCC(=O)NC(Cc1c(-c2cc(C(=O)O)cc(C(=O)O)c2)[nH]c2ccccc12)C(=O)O)(CCC(=O)NC(Cc1c(-c2cc(C(=O)O)cc(C(=O)O)c2)[nH]c2ccccc12)C(=O)O)NC(=O)CCCCCCNC(=O)Nc1cc(C(=O)O)cc(C(=O)O)c1)NC(Cc1c(-c2cc(C(=O)O)cc(C(=O)O)c2)[nH]c2ccccc12)C(=O)O (configuration not stated)	> 100000 nM	1090 nM	50 nM	> 100000 nM	50 nM	> 92	> 2000	42 nM	300 nM	60 nM	300 nM	EC50 (Enterovirus A71 [12]): 40 nM; EC50 (Coxsackievirus B3): > 50000 nM; EC50 (enterovirus D68): > 50000 nM; EC50 (rhinovirus A2): > 50000 nM; EC50 (rhinovirus B14): > 50000 nM; EC50 (Enterovirus A71 [13]): 6 nM; EC50 (Enterovirus A71 [14]): 75 nM; EC50 (Enterovirus A71 [15]): 2 nM; EC50 (Enterovirus A71 [16]): 91 nM
CC1(CCCCCCC(=O)NC(CCC(=O)NC(Cc2c(-c3cc(C(=O)O)cc(C(=O)O)c3)[nH]c3ccccc23)C(=O)O)(CCC(=O)NC(Cc2c(-c3cc(C(=O)O)cc(C(=O)O)c3)[nH]c3ccccc23)C(=O)O)CCC(=O)NC(Cc2c(-c3cc(C(=O)O)cc(C(=O)O)c3)[nH]c3ccccc23)C(=O)O)C(/C=C/C=C/C=C2/N(CCCS(=O)(=O)O)c3ccc(S(=O)(=O)O)cc3C2(C)C)=[N+](CCCS(=O)(=O)O)c2ccc(S(=O)(=O)O)cc21.[Na+].[Na+].[Na+].[Na+].[Na+].[Na+].[Na+].[Na+].[Na+].[Na+].[Na+].[Na+] (configuration not stated)	–	–	–	–	–	–	–	–	–	–	–	Drug uptake [17]: Active; Drug uptake [18]: Active; Drug uptake [19]: Active; Drug uptake [20]: Active; Drug uptake [21]: Active; Drug uptake [22]: Active
